Legend:
MftR (WT) = MftR (WT) (Mycolicibacterium smegmatis, UniProt A0QSB5); assay: ITC binding of acyl-CoAs to MftR; design: species or system Mycobacterium smegmatis mc^2155
Method: ITC was performed using TA Nano ITC. MftR was loaded in the sample cell at the concentration of 16 and 250 μM acyl-CoAs (C12–C18) loaded in the syringe. To minimize the effect of buffer mismatch, the stock concentration of acyl-CoAs was prepared using ITC buffer (50 mM Hepes, 50 mM NaCl, and pH 7.5), and the pH was adjusted to within 0.05 units. In addition, MftR was buffer exchanged into ITC buffer using a PD-10 column (GE Life Sciences). The volume of the titrant added at each injection into the sample cell was 2.22 μl. The time interval between the successive injections was 180 s. The temperature of the cell was kept at 25 °C. The data obtained were fit by independent one-site model using NanoAnalyze Data Analysis, version 3.8.0, that was provided with the instrument.

MftR–Omft complex = assay: Competitive EMSA screen for effectors of MftR; assay type: binding, Mycobacterium smegmatis mc^2155; conditions: 6-FAM Omft 0.5 μM, MftR 5 μM, effectors 100 μM
Method: Next, we assessed which metabolites activate MftR and thus could induce MFT production. To do so, we carried out competitive EMSAs where FAM-labeled Omft and MftR were incubated in the presence of potential effectors. We initially chose our effectors based on cholesterol catabolism, a process that putatively includes MFT biosynthetic genes ([38]). […] Knowing that TFRs have a propensity to be activated by fatty acyl-CoAs ([20]), we expanded our effector screening to include short-chain, medium-chain, and long-chain acyl-CoAs.
Figure 4 Effectors of MftR.A, an EMSA used to screen effectors of MftR. The 6-FAM–labeled Omft region (0.5 μM) was incubated with the MftR (5 μM) in the absence or the presence of effectors (100 μM). Protein–DNA complexes were separated by electrophoresis on 5% polyacrylamide gel. […] B, a representative isothermal titration calorimetry thermogram for the binding of the oleoyl-CoA to MftR regulator (blue) and the control of oleoyl-CoA into buffer (red). Each peak corresponds to the injection of 2.22 μl of 250 μM oleoyl-CoA into the cell containing 16 μM MftR or buffer. The integrated thermogram (blue dots) was fitted to a single-site binding model (black line) to determine the Kd. […] C, a bar graph depicting the ITC measured Kds for various acyl-CoAs. Bars represent the mean of three independent experiments, and the error bars represent the standard deviation of the experiments. 6-FAM, 6-carboxyfluorescein; ITC, isothermal titration calorimetry; Omft, mft operator.
His-tagged MftR was used to assess the protein binding to Pmft–MftA promoter fragment. DNA was mixed with increasing concentrations of the MftR protein in the reaction buffer (50 mM Hepes, 50 mM NaCl 0.1 mM EDTA, and pH 7.5) and incubated at room temperature for 10 min. The reactions were resolved by electrophoresis on a 5% (v/v) nondenaturing polyacrylamide gel in 1× Tris/borate/EDTA buffer at 200 V for 20 min on ice. Prior to the analysis, the gel was prerun for 30 min at 150 V on ice. Results were visualized by GelRed and recorded using Azure Biosystems 600 imaging system.

[1] = system: mft BGC (MftA–mCherry reporter); assay: Spot test growth analysis with Pmft–pCherry reporter; assay type: cell-based, Mycobacterium smegmatis mc^2155; conditions: 7H9 with 0.05% w/v each glucose and OA, compared with glucose alone
Method: To directly establish that oleoyl-CoA induces MFT biosynthesis in vivo, a colony dilution experiment was carried out using Msmeg transformed with Pmft–pCherry grown on Middlebrook 7H9 (7H9) supplemented with glucose or oleic acid (OA). We used OA in the growth media since it is well known that bacterial fatty acid shuttle systems convert free fatty acids to the corresponding acyl-CoAs and since Msmeg encodes for at least two known fatty acid transporters ([48], [49]). […] To assess when this occurs in real time, growth curve assays with Msmeg/Pmft–pCherry were carried out. […] We observed the same effect when OA was added to the media after 12 h of incubation. Next, we determined if MFT induction is dependent on the concentration of OA. We carried out a titration series of growth curves where 7H9 media were supplemented with 0.05% w/v glucose and 0.01, 0.02, 0.05, or 0.1% w/v OA. […]
Figure 6 Induction of MFT biosynthesis by oleoyl-CoA in vivo. […] Fluorescence images were obtained simultaneously from two different petri dishes using 585 nm excitation and 635 nm emission wavelengths. […]
A single time point growth assay was standardized for the growth of Msmeg on 7H9 agar plates with various carbon sources supplemented. […] The absorbance was measured and converted to colony-forming units (CFUs) using the standard 3.13 × 10^7 CFU·ml^−1·absorbance^−1 conversion factor ([58]). […]

[2] = system: mft BGC (MftA–mCherry reporter); assay: Growth curve assays with Msmeg/Pmft–pCherry; assay type: cell-based, Mycobacterium smegmatis mc^2155
Method: To directly establish that oleoyl-CoA induces MFT biosynthesis in vivo, a colony dilution experiment was carried out using Msmeg transformed with Pmft–pCherry grown on Middlebrook 7H9 (7H9) supplemented with glucose or oleic acid (OA). We used OA in the growth media since it is well known that bacterial fatty acid shuttle systems convert free fatty acids to the corresponding acyl-CoAs and since Msmeg encodes for at least two known fatty acid transporters ([48], [49]). […] To assess when this occurs in real time, growth curve assays with Msmeg/Pmft–pCherry were carried out. […] We observed the same effect when OA was added to the media after 12 h of incubation. Next, we determined if MFT induction is dependent on the concentration of OA. We carried out a titration series of growth curves where 7H9 media were supplemented with 0.05% w/v glucose and 0.01, 0.02, 0.05, or 0.1% w/v OA. […] However, in general, increasing concentrations of OA had little effect on the overall production of the MftA–mCherry fusion. The lack of immediate production of MftA–mCherry after the addition of OA and the concentration independence is perplexing. […] Rather, we expect that a subtler and unknown mechanism is at play.
Figure 7 Growth curve assays with Msmeg/Pmft–pCherry.A, absorbance at 600 nm measurements for the 7H9 media supplemented with 0.1% tyloxapol, 50 μg/ml hygromycin, and glucose and/or oleic acid (OA) as carbon sources. Concentrations of carbon sources were glucose only (0.1% w/v), OA only (0.1% w/v), and glucose/OA (0.05% w/v each) where OA was added after 12 h (blue arrow). B, corresponding fluorescence intensities (excitation of 585 nm/emission of 612 nm) of Msmeg/Pmft–pCherry cultures described in A. C, absorbance at 600 nm measurements for dose-dependent addition of OA to the 7H9 media supplemented with 0.05% w/v glucose and 0.01, 0.02, 0.05, 0.1% w/v of OA. D, corresponding fluorescence intensities of Msmeg/Pmft–pCherry cultures described in C. 7H9, Middlebrook 7H9; Msmeg, Mycobacterium smegmatis mc^2155; Pmft, mft promoter.
For fluorescence-based assays, a single Msmeg colony harboring Pmft–pCherry was used to inoculate 25 ml of 7H9 media supplemented with 0.1% tyloxapol, 0.1% w/v glycerol, 50 μg/ml hygromycin, and 0.1% w/v glucose. For cultures containing OA only, 0.1% w/v OA was used. […] The overnight culture was used to inoculate 7H9 media to an absorbance of 0.05 at 600 nm (1 cm pathlength) with carbon sources supplemented as described previously. […] Aliquots were taken every 2 h, and absorbance at 600 nm values were measured. To track the expression of the Pmft–pCherry fusion, fluorescence measurements were taken on a Cary Fluorimeter every 2 h using an excitation of 585 nm and an emission of 612 nm.

Sequence of MftR (WT) (A0QSB5 entry or part of it): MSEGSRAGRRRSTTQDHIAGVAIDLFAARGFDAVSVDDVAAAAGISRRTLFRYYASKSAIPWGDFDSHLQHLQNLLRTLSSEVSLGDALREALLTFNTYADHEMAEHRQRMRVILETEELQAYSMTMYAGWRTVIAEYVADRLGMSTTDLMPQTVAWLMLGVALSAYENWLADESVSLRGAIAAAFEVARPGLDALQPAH

CCCCCCCCCCCCCCCCCC(=O)SCCNC(=O)CCNC(=O)[C@H](O)C(C)(C)COP(=O)(O)OP(=O)(O)OC[C@H]1O[C@@H](n2cnc3c(N)ncnc32)[C@H](O)[C@@H]1OP(=O)(O)O [steroyl-CoA]
Kd (MftR (WT)): 2 to 4 µM

CCCCCCCCCCCC(=O)SCCNC(=O)CCNC(=O)[C@H](O)C(C)(C)COP(=O)(O)OP(=O)(O)OC[C@H]1O[C@@H](n2cnc3c(N)ncnc32)[C@H](O)[C@@H]1OP(=O)(O)O [lauroyl-CoA]
decrease in binding affinity as compared with oleoyl-CoA (MftR (WT); ITC, WT MftR): ~10 fold

CC(C)CCC[C@@H](C)[C@H]1CC[C@H]2[C@@H]3CC=C4C[C@@H](O)CC[C@]4(C)[C@H]3CC[C@]12C [cholesterol]
disruption of the MftR–Omft complex (DNA release) (MftR–Omft complex): did not observe DNA release

CCCCCCCCCCCCCCCC(=O)SCCNC(=O)CCNC(=O)[C@H](O)C(C)(C)COP(=O)(O)OP(=O)(O)OC[C@H]1O[C@@H](n2cnc3c(N)ncnc32)[C@H](O)[C@@H]1OP(=O)(O)O [palmitoyl-CoA]
Kd (MftR (WT)): 2 to 4 µM

CC(=O)CC(=O)SCCNC(=O)CCNC(=O)[C@H](O)C(C)(C)COP(=O)(O)OP(=O)(O)OC[C@H]1O[C@@H](n2cnc3c(N)ncnc32)[C@H](O)[C@@H]1OP(=O)(O)O [acetoacetyl-CoA]
disruption of the MftR–Omft complex (DNA release) (MftR–Omft complex): did not observe DNA release

CCCCCCCCCCCCCC(=O)SCCNC(=O)CCNC(=O)[C@H](O)C(C)(C)COP(=O)(O)OP(=O)(O)OC[C@H]1O[C@@H](n2cnc3c(N)ncnc32)[C@H](O)[C@@H]1OP(=O)(O)O [myristoyl-CoA]
disruption of the MftR–Omft complex (DNA release) (MftR–Omft complex): disrupted the MftR–Omft complex

succinyl-CoA
disruption of the MftR–Omft complex (DNA release) (MftR–Omft complex): did not observe DNA release

CC(C)(COP(=O)(O)OP(=O)(O)OC[C@H]1O[C@@H](n2cnc3c(N)ncnc32)[C@H](O)[C@@H]1OP(=O)(O)O)[C@@H](O)C(=O)NCCC(=O)NCCS [CoA]
disruption of the MftR–Omft complex (DNA release) (MftR–Omft complex): did not disrupt the MftR–Omft complex

CCCCCCCC/C=C\CCCCCCCC(=O)O [OA, oleic acid]
fluorescence intensity of colonies [1]: starkly increased | fluorescence intensity in OA titration series ([2]; 0.05% w/v OA with 0.05% w/v glucose, within 40 h): highest fluorescence intensity | fluorescence intensity compared with the control ([2]; 0.1% OA only, cultures at nearly the same absorbance): nearly three times | fluorescence intensity ([2]; OA added to the media after 12 h of incubation (glucose/OA 0.05% w/v each)): same effect | overall production of the MftA–mCherry fusion ([2]; increasing OA 0.01, 0.02, 0.05, 0.1% w/v with 0.05% w/v glucose): little effect

CCC(=O)SCCNC(=O)CCNC(=O)[C@H](O)C(C)(C)COP(=O)(O)OP(=O)(O)OC[C@H]1O[C@@H](n2cnc3c(N)ncnc32)[C@H](O)[C@@H]1OP(=O)(O)O [propionyl-CoA]
disruption of the MftR–Omft complex (DNA release) (MftR–Omft complex): did not observe DNA release

Source: article PMC8728441, “Biosynthesis of the redox cofactor mycofactocin is controlled by the transcriptional regulator MftR and induced by long-chain acyl-CoA species” (The Journal of Biological Chemistry, 2021)
